# Patent US12128260B2, “Pathogen capture using active surface modification” (priority 2020, dated 2024)
# Columns and labels:
# [1] = biological target: SARS-CoV-2 spike protein (Severe acute respiratory syndrome coronavirus 2, UniProt P0DTC2); type: binding
# [2] = system: Human IgG; settings: FIGS. 4A and 4B; all concentration levels that included IgG, starting at 1 μg/ml; compared with high-protein-binding ELISA plates
# [3] = system: IgG; experiment: Model protein (IgG) capture on nanocoated facemask pieces, Gel-Code protein staining dye; type: binding; settings: FIG. 7, IgG incubated 30 minutes, PBS wash, colour change, relative to uncoated facemask
# Excerpt: FIG. 7 depicts the relative binding of a model protein to pieces of facemasks coated with a different one of three bifunctional silane chemicals as well as to uncoated had hydrophobic controls. With reference to FIG. 7, pairs of pieces of standard facemasks (Machimpex, catalogue #1005-544-988) were nanocoated with one of the various chemicals. One pair, shown at the far left, was left uncoated. […] IgG was used as a model for protein capture as it behaved similar to the full-length coronavirus spike protein in plate-binding assays and is likely to have similar activity to that of bacterial coat proteins. The IgG was applied to the facemask fabric and incubated for 30 minutes prior to washing in phosphate buffered saline (PBS). Detection of the captured protein after washing was performed by applying 200 μl Gel-Code protein staining dye (Thermo Fisher Scientific, catalogue #24590) directly to the materials and incubating for one hour. Color change indicating protein capture was documented by photography.
compound,measurement,setting,value
"CO[Si](C)(CCCNCCCN(C)C)OC [CCH699020, 3-(N,N-dimethylaminopropyl)aminopropylmethyldimethoxysilane]",relative binding of SARS-CoV-2 spike glycoprotein applied at different concentrations,[1],control high-protein-binding ELISA plate significantly outperformed the chemical coating
CCO[Si](CCCNCCN)(OCC)OCC [N-(2-aminoethyl)-3-aminopropyltriethoxysilane],relative binding of IgG applied at different concentrations,[2],significantly outperformed the high-protein-binding ELISA plates
"CCO[Si](CCCNC(=O)/C=C\C(=O)O)(OCC)OCC [CCH8845, triethoxysilylpropylmaleamic acid]",overall capability of binding the coronavirus spike protein,[1],"bind about equally well as CCH9021, CCH4502, and CCH1053"
"CCO[Si](CCCNCCN)(OCC)OCC [CCH9021, N-(2-aminoethyl)-3-aminopropyltriethoxysilane]",relative binding of SARS-CoV-2 spike glycoprotein,[1],slightly underperformed the high-protein-binding ELISA plate
same,capture of model protein (IgG) onto facemask,[3],efficiently captured the protein onto facemask relative to the uncoated facemask
same,capture of model protein (IgG) onto facemask,[3]; listed as NCT9021,appears to have captured more efficiently
